According to US20140005412A1, “TREATMENT OF ARTERIAL AGEING BY HMG CoA REDUCTASE INHIBITOR” (FARMICOM PHARMACEUTICAL COMPANY D.O.O., priority 2011, published 2014):

What was measured:
[1] = test system: brachial artery; assay: Ultrasound measurement of flow-mediated dilatation of brachial artery (FMD), endothelial function; assay type: in vivo, human; conditions: for FMD, after treatment: after 1 month (30 days) treatment; for FMD, improvement: after 1 month vs before treatment
Method: Fifty apparently healthy male individuals (42.6±1.9 years) were recruited in double blind, randomized study. Inclusion criteria were: The control group (n=25) received placebo, while the test group (n=25) received subtherapeutic daily dose of fluvastatin sodium-10 mg daily (the recommended therapeutic daily dose is 40 to 80 mg) during a period of 1 month-30 days. All subjects underwent clinical examination, blood pressure measurements ([…] automated sphygmomanometer) and ultrasound measurement of flow-mediated dilatation of brachial artery (FMD), pulse-wave velocity (PWV) and β-stiffness of carotid artery at inclusion (0th day) and after 1 month (30th day) of the study. Fasting blood samples were taken at the beginning and at the end of the study for laboratory analysis. Blood glucose, electrolytes and cholesterol were obtained using the VITRO 5.1 FS Chemical system (Ortho Clinical Diagnostics, Inc.). Ultrasound measurements were performed by a single examiner using Aloka ProSound Alpha 10 echo-machine. Endothelial function was measured by means of FMD on the brachial artery according to FMD guidelines (Corretti M C et al. Guidelines for the ultrasound assessment of endothelial-dependent flow-mediated vasodilation of the brachial artery: a report of the International Brachial Artery Reactivity Task Force. J Am Coll Cardiol 2002; 39: 257-65). The echo-machine continuously tracked and recorded the brachial artery diameter. Following the measurement of baseline brachial artery diameter (1 min), the forearm blood pressure cuff was inflated to 50 mmHg above the systolic pressure for 4 min. After the occlusion period, the cuff was rapidly deflated, inducing reactive hyperemia, and the brachial artery diameter was recorded for 3 min. At the end of the measurement, the machine automatically provided the values of FMD. All values were expressed as arithmetic mean±SEM and were normally distributed. Differences between values recorded at the beginning (0th day) and at the end of the study (30th day) were determined by one-way analysis of variance (ANOVA). When a significant interaction was present, the Bonferroni post-test was performed. […] All statistical analyses were performed using Graph Pad Prism 5.0 software.

[2] = Fasting blood laboratory analysis (cholesterol, triglycerides, glucose); assay type: in vivo, human; conditions: Example 1, n=25, 10 mg daily, mean ± SEM
From the text: All subjects underwent clinical examination, blood pressure measurements ([…] automated sphygmomanometer) and ultrasound measurement of flow-mediated dilatation of brachial artery (FMD), pulse-wave velocity (PWV) and β-stiffness of carotid artery at inclusion (0th day) and after 1 month (30th day) of the study. Fasting blood samples were taken at the beginning and at the end of the study for laboratory analysis. Blood glucose, electrolytes and cholesterol were obtained using the VITRO 5.1 FS Chemical system (Ortho Clinical Diagnostics, Inc.).

[3] = blood plasma; cited from earlier work
[4] = test system: arterial wall; assay: "Biological" arterial age according to age-related normogram; assay type: in vivo, human
[5] = test system: right common carotid artery; assay: Ultrasound measurement of β-stiffness of carotid artery; assay type: in vivo, human; conditions: Example 1, 10 mg daily; after 1 month (30 days) treatment
Method: Fifty apparently healthy male individuals (42.6±1.9 years) were recruited in double blind, randomized study. Inclusion criteria were: The control group (n=25) received placebo, while the test group (n=25) received subtherapeutic daily dose of fluvastatin sodium-10 mg daily (the recommended therapeutic daily dose is 40 to 80 mg) during a period of 1 month-30 days. All subjects underwent clinical examination, blood pressure measurements ([…] automated sphygmomanometer) and ultrasound measurement of flow-mediated dilatation of brachial artery (FMD), pulse-wave velocity (PWV) and β-stiffness of carotid artery at inclusion (0th day) and after 1 month (30th day) of the study. Fasting blood samples were taken at the beginning and at the end of the study for laboratory analysis. Blood glucose, electrolytes and cholesterol were obtained using the VITRO 5.1 FS Chemical system (Ortho Clinical Diagnostics, Inc.). The measurements of PWV and β-stiffness were performed on the right common carotid artery. The Aloka ultrasound device was also equipped with special software for automatic determination of the PWV and beta-stiffness through the analysis of pulse waves (Carerj S et al. Normal vascular aging evaluated by a new tool: e-tracking. Eur J Echocardiography 2006; suppl: S 49). All values were expressed as arithmetic mean±SEM and were normally distributed. Differences between values recorded at the beginning (0th day) and at the end of the study (30th day) were determined by one-way analysis of variance (ANOVA). When a significant interaction was present, the Bonferroni post-test was performed. […] All statistical analyses were performed using Graph Pad Prism 5.0 software.

[6] = Example 2, rest period 7 months
[7] = Example 2, rest period 8 months
[8] = Example 5, rest period 5 months
[9] = Example 5, rest period 8 months
[10] = Example 5, rest period 3 months

CC(C)n1c(/C=C/C(O)CC(O)CC(=O)O)c(-c2ccc(F)cc2)c2ccccc21 (stereo not shown) [Fluvastatin sodium, fluvastatin sodium]
FMD, after treatment ([1]; Example 1, 10 mg daily): 4.39%
FMD, improvement ([1]; Example 1, 10 mg daily): +91.0%
FMD, before treatment ([1]; Example 1, 10 mg daily): 2.31%
FMD increased by ([1]; Example 1 study (50 subjects, double-blind), 10 mg, after 30 days of treatment): 91.0%
FMD, residual improvement in % of effect achieved after 1 month of treatment ([1]; Example 2 (participants of Example 1), rest period 5 months): 53.3%
FMD, residual improvement in % of effect achieved after 1 month of treatment [1, 6]: 33%
FMD, residual improvement in % of effect achieved after 1 month of treatment [1, 7]: 10.5%
FMD increased by ([1]; Example 4, 10 mg daily, after 1 month treatment period): 120.8%
FMD, after treatment ([1]; Example 4, 10 mg daily): 5.30%
FMD, improvement ([1]; Example 4, 10 mg daily): +120.8%
FMD, before treatment ([1]; Example 4, healthy males n=15, 10 mg daily): 2.40%
FMD, residual improvement in % of effect achieved after 1 month of treatment ([1]; Example 5 (participants of Example 4), rest period 3 months): 73.4%
FMD, residual improvement in % of effect achieved after 1 month of treatment [1, 8]: 55.2%
FMD, residual improvement in % of effect achieved after 1 month of treatment [1, 9]: 16.3%
FMD ([1]; Example 6, ten participants, 10 mg daily, 1. intervention, before): 3.5 ± 0.6%
FMD ([1]; Example 6, 1. intervention, after 1 month of treatment): 5.3 ± 0.6%
FMD ([1]; Example 6, 2. intervention (repetition), after 1 month of treatment): 5.7 ± 0.2%
FMD ([1]; Example 6, 2. intervention (repetition), before, after rest period of 12 months): 3.9 ± 0.8%
HDL cholesterol ([2]; 1st day (baseline)): 1.2 ± 0.1 mmol/L
LDL cholesterol ([2]; 1st day (baseline)): 3.7 ± 0.2 mmol/L
Total cholesterol ([2]; 1st day (baseline)): 5.7 ± 0.2 mmol/L
Triglycerides ([2]; 1st day (baseline)): 1.6 ± 0.2 mmol/L
HDL cholesterol ([2]; 30th day): 1.2 ± 0.1 mmol/L
LDL cholesterol ([2]; 30th day): 3.6 ± 0.2 mmol/L
Total cholesterol ([2]; 30th day): 5.4 ± 0.2 mmol/L
Triglycerides ([2]; 30th day): 1.6 ± 0.3 mmol/L
half-life time (t1/2) [3]: about 2.5 hours
Arterial age according to age-related normogram [4, 6]: 43.6 years
Arterial age according to age-related normogram, difference (in brackets) to before treatment [4, 6]: −1.4 years
Arterial age according to age-related normogram [4, 7]: 44.5 years
Arterial age according to age-related normogram, after treatment ([4]; Example 4, 10 mg daily, after 1 month treatment): 32.0 years
Arterial age according to age-related normogram, improvement ([4]; Example 4, 10 mg daily, after 1 month vs before treatment): −9.0 years
Arterial age according to age-related normogram, before treatment ([4]; Example 4, 10 mg daily, before treatment): 41.0 years
Arterial age according to age-related normogram [4, 10]: 34.2 years
Arterial age according to age-related normogram, difference (in brackets) to before treatment [4, 10]: −6.8 years
Arterial age according to age-related normogram [4, 8]: 36.4 years
Arterial age according to age-related normogram, difference (in brackets) to before treatment [4, 8]: −4.6 years
Arterial age according to age-related normogram [4, 9]: 40.0 years
Arterial age according to age-related normogram, difference (in brackets) to before treatment [4, 9]: −1.0 years
β-stiffness, after treatment [5]: 6.40 U
